The subject of this assay is HL-60(TB) cells. The experiment in a line: Annexin V-FITC/PI apoptosis assay. The note with it: GI50 (158 nM), 24 h. In kind it is cell-based, human. As for the experimental part: Extrinsic as well as intrinsic apoptosis in leukaemia, HL-60(TB) cancer cells, induced by compound 6c was evaluated by Annexin V and PI staining. […] Compound 6c induced an early apoptosis (2.88%), in HL-60(TB) at 24 h compared to control (0.51%) and enhanced late apoptotic induction (15.75%) by more than 85-fold over the untreated cells (0.18%). Moreover, compound 6c induced necrosis by 7 times more than control as declared in Figures 8 and 9.
Annexin V-fluorescein isothiocyanate (Annexin V-FITC) has high affinity to phosphatidylserine (PS). This affinity enables detection of PS by Annexin V-FITC staining as previously described.

Take `Brc1cccc(/C=N/Nc2nc(N/N=C/c3cccc(Br)c3)nc(N3CCOCC3)n2)c1` [compound 6c, 2,4-Bis[(E)-2-[(3-bromophenyl)methylidene]hydrazin-1-yl]-6-(morpholin-4-yl)-1,3,5-triazine]: the early apoptosis is 2.88%, the late apoptotic induction was determined as 15.75%, the “late apoptotic induction over the untreated cells” value is recorded as “more than 85 fold” and the “necrosis induction relative to control” value stood at 7 times.

The values are drawn from article PMC9848300, “Discovery of novel enasidenib analogues targeting inhibition of mutant isocitrate dehydrogenase 2 as antileukaemic agents” (Journal of Enzyme Inhibition and Medicinal Chemistry, 2023).
